Marks after values point to notes of the source that are not given here.

The source of these data is patent US20250375491A1, “MONASCUS PILOSUS STRAIN, COMPOSITION FOR LOSING WEIGHT AND IMPROVING GUT MICROBIOTA COMPOSITION AND USE OF SAID MONASCUS PILOSUS” (SUNWAY BIOTECH CO., LTD., priority 2024, published 2025).

Holding throughout (type): in vivo, Sprague-Dawley (SD) rats
For assay [1], the system named is obesity rats induced by high-fat feed. The experiment in a line: Body weight change of obesity rats induced by high-fat feed. Particulars: high-fat diet rats, Monascinol 0.31 mg/kg BW daily by tube feeding (human 3 mg/day), 8 weeks. The method, then:
• (1) Msol Group: This group used Monascinol with an adult daily dosage of 3 mg/day. • (2) RL and RH Groups: These groups used the red yeast rice obtained by fermenting the Monascus pilosus fermented rice of the present invention and the red yeast rice contained 3 mg/g of Monascinol, wherein the adult daily dosage of the red yeast rice for the RL and RH groups were 0.5 g/day and 2 g/day respectively. 2. Experiment on Evaluation of Adjustment of Body Fat Composition
(§1) Forty male rats of 8-week-old Sprague-Dawley (SD) strain were purchased from BioLASCO (Taipei, Taiwan) for the experiment. The growing environment was one with constant indoor temperature (25±1° C.), relative humidity of 60%, and 12 hours of cyclic light (light time from 8:00 to 20:00). The rats were acclimatized for four days before the formal experiment, then reared in 5 groups of 8 rats each for 8 weeks and were fed in an ad libitum feeding manner, and their body weight, food intake and water intake were measured at regular intervals during the experimental period.
The feeding dosage was calculated according to the method of “Estimating the maximum safe starting dose in initial clinical trials for therapeutics in adult healthy volunteers” published by the U.S. Food and Drug Administration in 2005. Provided that an adult of 60 kg was used as the base, the principle of dosage conversion is 6.2 times of the recommended daily intake of mg/kg bw/day for human as the recommended daily intake of mg/kg bw/day for rat, and the rat group is configured and fed with the dosage as shown in Table 1. The formulae are as follows: Dose intake per kilogram of body weight in rats=Recommended intake in humans÷Body weight 60 kg×6.2, and thus the daily dose intake per kilogram of body weight in rats can be calculated.
The experimental rats were divided into groups, and the obesity rats were induced by high-fat feed as follows (Please refer to Table 1). • i. NOR Group: Normal animal group. • ii. […]
The body weight of rats was measured weekly and the changes in body weight of each group were compared at the end of the experiment.

Assay [2] shares this test system. The experiment in a line: Liver lipid extraction and determination (TC, TG). To be noted: high-fat diet rats; Monascinol 0.31 mg/kg BW daily by tube feeding (human 3 mg/day), 8 weeks. On the procedure: as §1
(§2) The experimental rats were divided into groups, and the obesity rats were induced by high-fat feed as follows (Please refer to Table 1). • i. NOR Group: Normal animal group. • ii. HF Group: High-fat control group including obesity rats induced by high-fat feed. • iii. […]
(§3) 0.1 g of liver tissue or fecal powder was weighed and 1 mL of chloroform:methanol (2:1, v/v volume ratio) was added, and homogenized with a tissue homogenizer and centrifuged to obtain the supernatant. […] The TC concentration was analyzed using a commercially available biochemical reagent (Model No. BXC 0261, Fortress), and the TG concentration was analyzed using a commercially available biochemical reagent (Model No. BXC 0271, Fortress), as per the kit instruction manual.

Assay [3] has the same test system. In words: Body fat mass and body fat rate (perirenal and epididymal fatty tissues). Particulars: high-fat diet rats, Monascinol 0.31 mg/kg BW daily by tube feeding (human 3 mg/day), 8 weeks. On the procedure: as §1
(§4) The experimental rats were divided into groups, and the obesity rats were induced by high-fat feed as follows (Please refer to Table 1). • i. NOR Group: Normal animal group. • ii. HF Group: High-fat control group including obesity rats induced by high-fat feed. • iii. RL Group: Obesity rats induced by high-fat feed and tube-fed daily with red yeast rice powder, equivalent to 0.5 g of red yeast rice containing 1.5 mg of Monascinol per day consumed by an adult rat of 60 kg. • iv. […]
At the time of sacrifice, fatty tissues surrounding the kidneys and the epididymis (perirenal and epididymal fatty tissues) of the experimental animals were removed, and the their weights were measured and recorded. The body fat rate was calculated as follows: […]

The test system of assay [4] is gut microbiota of high-fat diet rats. In words: Gut microbiota fecal analysis (full-length 16S sequencing). On the procedure: About 0.3 g of fresh feces was collected into 1.5 mL of eppendorf before fasting for sacrifice, sealed with parafilm, stored at −80° C. for analysis, and sent to BioTools (New Taipei, Taiwan) for analysis.
Total genomic DNA (QIAamp PowerFecal DNA, Qiagen) was extracted from the samples. The DNA concentration was determined by Qubit 4.0 fluorometer (Thermo Scientific) and adjusted to 1 ng/μL. The full-length 16S gene (V1-V9 region) was amplified by 16S gene-specific primers with barcodes (Forward primer 1): 5′ Phos/GCATC-16-base barcode-Sequence ID Number 11, Reverse primer 1: 5′Phos/GCATC-16-base barcode-Sequence ID Number 12). PCR reactions were performed using KAPA HiFi HotStart ReadyMix (Roche): at 95° C. for 3 min. and 20-27 cycles (Sample Dependency): at 95° C. for 30 sec., at 57° C. for 30 sec., at 72° C. for 60 sec; at 72° C. for 5 min., and finally stored at 4° C. for future use. PCR products were monitored on 1% agarose gels. Samples of approximately 1500 bp bright bands were selected and purified by using AMPure PB Beads for SMRTbell library preparation.
SMRTbell libraries were prepared based on full-length 16S gene amplifications with barcoded primers used in the Multiplex SMRTbell Library Preparation and Sequencing Program (Pacbio). Sequencing was performed in circular consensus sequencing (CCS) mode on a PacBio Sequel Ile instrument, generating HiFi read with a Phred Scale=30. The DNA to be tested will be sequenced iteratively. By comparing the results of the reverse sequencing, sequencing errors will be corrected, ultimately achieving a high accuracy of >99.9% (QV30).
Information Analysis (Sequential data processing/denoising and species annotation) The sample data from the downstream data were sorted out according to the Barcode sequence and PCR amplification primer sequences. After the removal of the barcodes and primer sequences, the data were imported into QIIME2 (v2019.7.0; https://qiime2.org/) and all the sequences of the samples were saved into one corresponding object Artifacts. QIIME2 cutadapt was used to remove the amplicon variant primers (forward primer 2: Sequence ID Number 13; reverse primer 2: Sequence ID Number 14), and the sequence with the primers removed will be used as QIIME2 DADA2. Input Reads.
The denoising analysis began with the filtering of sequences, setting each sequence to be cropped to a specified length (forward reads: 280 bp; reverse reads: 220 bp) and setting the MaxEE (forward reads: 2; reverse reads: 2) parameter as the maximum number of expected error bases allowed for the sequence. This was followed by denoising, the core algorithm of DADA2 utilizing the information of sequence abundance, quality score, and relationships between sequences to correct the […] of sequencing errors and to infer the real sequences. Splicing was performed after denoising each end of the sequence (minimum overlap length 20 bp; overlap region was not allowed to be mismatched). Finally, the spliced sequences are subjected to chimera removal by comparing the sequences with higher abundance in the sample. If a sequence with low abundance is similar to several sequences, it can be recognized as a chimera and removed from the sample. Sequences after denoising analysis were used as representative sequences of Amplicon Sequence Variants (ASVs) and can be obtained from the ASV table for subsequent species annotation. The QIIME2 feature-classifier (v2019.7.0; https://qiime2.org/) was used to select machine learning-based classification methods and to train naïve bayes classifiers for different databases and specific variability regions. The taxonomic annotation of ASVs represented by this classifier yields taxonomic information and the composition of the microbial phyla of each sample at each classification level including kingdom, phylum, class, order, family, genus, and species.
Welch's t-test was analyzed by STAMP (v2.1.3), and the intergroup species differences were plotted as bar charts. […]

Assay [5] relates to obesity rats induced by high-fat feed. In words: Liver weight and liver/body weight of high-fat diet rats. Particulars: Monascinol 0.31 mg/kg BW daily by tube feeding (human 3 mg/day), 8 weeks. The method, then:
as §1
as §4, with “iv. RH Group: Obesity rats induced by high-fat feed and tube-fed red yeast rice powder daily, equivalent to 2 g of red yeast rice containing 6 mg of Monascinol per day consumed by an adult of 60 kg. • v.” for “iv.”

Assay [6] shares this test system. The experiment in a line: Fecal lipid extraction and determination (TC, TG). Particulars: high-fat diet rats; Monascinol 0.31 mg/kg BW daily by tube feeding (human 3 mg/day), 8 weeks. The method, then: as §1, §2, §3
For assay [7] the test system is unchanged. In words: Serum biochemical analysis (TC, TG). Particulars: high-fat diet rats, Monascinol 0.31 mg/kg BW daily by tube feeding (human 3 mg/day), 8 weeks. On the procedure: as §1, §4
The test was performed using a biochemical autoanalyzer (Model No.: Beckman-700, purchased from Fullerton, California, USA). The items measured were Total Cholesterol (TC), and Triglyceride (TG).

Where [8] appears, read: FIGS. 9A-9D, high-fat diet rats.
Setting [9] is: order level, FIG. 7C, high-fat diet rats.
Setting [10] is: phylum level, FIG. 7A, high-fat diet rats vs HF group.

Monascinol [Msol]: the “Weight before Sacrifice” value in assay [1] (after fasting) is reported as 488.5 ± 31.7^a g. For the same substance, in assay [1], the “Weight 8 week” value is 512.1 ± 31.1^a g and the Weight gain is reported as 220.8 ± 38.8^a g. Further, in assay [2], the “Liver TC” value was 5.05 ± 0.54^a mg/g and the “Liver TG” value was 14.40 ± 1.57^a mg/g. Further, the Fat/body weight in assay [3] (body fat percentage) is 3.35 ± 0.55^b %. Further, the Fat weight in assay [3] (perirenal and epididymal fat) is 17.95 3.55^b g. Besides, in assay [4] (FIG. 7A, high-fat diet rats vs HF group), the “F/B ratio (abundance ratio of Firmicutes to Bacteroidetes)” value is on record as “decrease”. In assay [4] (setting [8]), the “effect on B. thetaiotaomicron in the intestines” value was “most significant” and the “intestinal abundance of Dubosiella newyorkensis” value is on record as “increase”. Besides, in assay [4] (setting [9]), the “bacterial abundance of Bifidobacteriales in the intestine” value is listed as “increased” and the “intestinal abundance of Verrucomicrobiales” value is recorded as “increased”. Besides, the “abundance of Eubacteriales” value in assay [4] (order level, FIG. 8, HF group 50.14%, high-fat diet rats, Monascinol (MSol, 3 mg/day), 8 weeks) worked out at 43.21%. In addition, in assay [4] (setting [10]), the “abundance of Bacteroidetes” value is reported as “increase” and the “abundance of Firmicutes” value was “decrease”. Moreover, in assay [4] (species level, FIG. 7F, high-fat diet-induced obesity rats), the “abundance of A. muciniphila” value is reported as “increased”. For the same substance, in assay [5], the “Liver Weight/Body Weight” value is reported as 3.28 ± 0.37^b % and the Liver weight was 16.84 2.31^b g. For the same substance, in assay [6], the “Feces TC” value is 46.22 ± 4.72^c mg/g and the “Feces TG” value is 61.27 4.80^cd mg/g. In assay [7], the TC is 65.0 ± 10.4^b mg/dL and the TG was 61.7 ± 10.7^a mg/dL.
